Reference: US20250136934A1, “PRODUCTION OF INDUCED MIDBRAIN DOPAMINERGIC PROGENITOR CELLS FROM PLURIPOTENT STEM CELLS” (NUWACELL BIOTECHNOLOGIES CO., LTD., priority 2023, published 2025)

Experiments:
imDAP cells = assay: Specification of imDAP cells under BMP and TGF-β signaling inhibition (FACS FOXA2+/OTX2+, NKX2.1 qRT-PCR, LMX1A immunostaining); type: cell-based, human; conditions: for specification of imDAP cells (FIGS. 13A-13D taken together): LDN193189 at 0.2 μM Day 0 to Day 6 and SB431542 at 50 μM Day 0 to Day 4 or Day 0 to Day 6; for specification of imDAP cells (FIGS. 12A-12C taken together): LDN193189 at 0.5 μM and SB431542 at 20 μM, among all combinations of concentrations tested; for specification of imDAP cells (FIGS. 11A-11C taken together): LDN193189 from D0 to D6 and SB431542 from D0 to D4, among all time windows tested
FOXA2+ imDAP cells = assay: FACS analysis of FOXA2 expression of imDAP cells derived from hiPSCs; type: cell-based, human
Description: • 1. Individualize and collect cells by either Accutase or TrypLE treatment. • 2. Wash cells with 1 ml PBS and pellet cells at 250×g for […]. • 3. Remove supernatant, add ˜200 μl of 4% PFA, mix and fix for 10 min at RT. • 4. Pellet cells at 350×g for 5 min. • 5. Wash cells by 1 ml of FACS buffer and pellet cells at 350×g for 5 min. • 6. Remove supernatant, add 200 μl/tube of FACS buffer/0.1% Triton X, mix for 10 min at RT. • 7. Wash cells by 1 ml of FACS buffer and pellet cells at 350×g for 5 min. • 8. Remove supernatant, add 200 μl/tube of primary antibody diluted in FACS buffer, mix gently, and incubate for 30 min at RT. • 9. Wash cells by 1 ml of FACS buffer and pellet cells at 350×g for 5 min. • 10. Remove supernatant, and add 200 μl of secondary antibody diluted in FACS buffer, mix gently, and incubate for 30 min at RT. • 11. Wash cells by 1 ml of FACS buffer and pellet cells at 300×g for 5 min. • 12. Remove supernatant, add 200 μl of FACS buffer, and run samples on the flow cytometer.
On Day-1, EB formation (Stage 1) was carried out by dissociating hiPSCs (Nuwacell) to form a single-cell suspension and resuspending it in Epic medium (Nuwacell, #RP01001) containing 10 μM Blebbistatin (MCE, #HY-13441) in T25 flasks on a belly dancer and culturing the cells overnight. On Day 0, ventral midbrain floor plate differentiation (Stage 2) was initiated by changing the medium to a Stage 2-1 differentiation medium containing DMEM: F12/B27 (plus Vitamin A) (98:2, v/v) as basal medium and supplemented with 0.2 μM LDN193189, 10 μM SB431542, 1 μg/mL SHH C24II and 1.25 μM CHIR99021 and culturing the cells for 3 Days. From Day 3, the basal medium was changed to DMEM: F12/B27 (minus Vitamin A) (98:2, v/v), and CHIR concentration was boosted to 7.5 μM until Day 10 (Stage 2-2). SB431542 was withdrawn on Day 4, and SHH C24II was withdrawn on Day 8. From Day 10 (Stage 2-3), the medium was changed to a differentiation medium containing DMEM: F12/B27 (minus Vitamin A) (98:2, v/v) as basal medium and supplemented with 0.2 μM LDN193189 and 3 μM CHIR99021. During the cell culture, each of the differentiation media was replaced every day. On Day 16 (at the end of S2-3), EBs were dissociated for single cells and collected for analysis. The cells of each group were stained with FOXA2-PE antibody (BD, #561689), the percentage of FOXA2+ imDAP cells were analyzed by flow cytometry (FIG. 5). The above experiment was repeated for three times and the derived imDAP cells were named as Lot1, Lot2 and Lot3, respectively.
On Day-1, EB formation (Stage 1) was carried out by dissociating hiPSCs (Nuwacell) to form a single-cell suspension and resuspending it in Epic medium (Nuwacell, #RP01001) containing 10 μM Blebbistatin (MCE, #HY-13441) in T25 flasks on a belly dancer and culturing the cells overnight. On Day 0, ventral midbrain floor plate differentiation (Stage 2) was initiated by changing the medium to a Stage 2-1 differentiation medium containing DMEM: F12/B27 (plus Vitamin A) (98:2, v/v) as basal medium and supplemented with 0.2 μM LDN193189, 20 μM SB431542, 1.2 μM CHIR99021, and 1 μg/mL SHH C24II or the combination of SHH agonists including 500 ng/mL SHH C24II, 2 μM Purmorphamine and 10 nM SAG and culturing the cells for 3 days. From Day 3, the basal medium was changed to DMEM: F12/B27 (minus Vitamin A) (98:2, v/v). Cells were exposed to Boost-CHIR concentration of 7.5 μM starting from Day 4 to Day 6 (Stage 2-2), followed by a low CHIR concentration of 1.2 μM (Stage 2-3) until Day 10. […]

Row | Compound | specification of imDAP cells (FIGS. 13A-13D taken together) (imDAP cells) | specification of imDAP cells (FIGS. 12A-12C taken together) (imDAP cells) | specification of imDAP cells (FIGS. 11A-11C taken together) (imDAP cells) | percentage of cells positive for FOXA2 (FOXA2+ imDAP cells; 4-step protocol, SHH agonist in medium Day 0 to Day 10, analysis Day 16) [%] | percentage of FOXA2+ cells (FOXA2+ imDAP cells; without Vitamin A throughout differentiation versus Vitamin A only D0-3 or D0-2)
1 | c1ccc2c(-c3cnn4cc(-c5ccc(N6CCNCC6)cc5)cnc34)ccnc2c1 [LDN193189] | best results | best results | best results | – | –
2 | NC(=O)c1ccc(-c2nc(-c3ccc4c(c3)OCO4)c(-c3ccccn3)[nH]2)cc1 [SB431542] | best results | best results | best results | – | –
3 | SHH C24II: sonic hedgehog agonist polypeptide, SEQ ID NO: 2 | – | – | – | 85.71 | –
4 | Vitamin A | – | – | – | – | higher percentage
